Publication PMC4188013, “Insights into the binding of PARP inhibitors to the catalytic domain of human tankyrase-2” (Acta Crystallographica Section D: Biological Crystallography, 2014)
Like-named read-outs stand apart in the source and are kept apart here.

Columns and labels:
PARP1 = test system: PARP1; parameters: method as in not given; details: cited from earlier work
PARP domain of TNKS2 = molecular target: T1, PARP domain of TNKS2 (Homo sapiens, UniProt Q9H2K2); experiment: In vitro PARP assay, IC50 on TNKS2 (this study); assay type: biochemical; details: values from this study
T1 construct: His6; made in house; host or cells: Escherichia coli BL-21(DE3) RIPL
Protocol: Purified PARP domain of TNKS2 and either BSA or recombinant full-length 3BP2 protein were incubated in PARP reaction buffer (50 mM Tris pH 8.0, 4 mM MgCl2, 0.2 mM dithiothreitol) containing 0.5 mM NAD^+ as an exogenous source of ADP-ribose for 30 min at 25°C with or without PARP inhibitors. Reactions were stopped by adding sample buffer to the tubes. Samples were boiled and separated on a 4–20% SDS–PAGE gel. The gel was stained with Coomassie Blue, dried on a gel dryer and used for autoradiography analysis (Fig. 2 ▶).

PARP2 = test system: PARP2; parameters: method as in not given; details: IC50 values available from the literature; ref not given; cited from earlier work
TNKS1 = test system: TNKS1; parameters: method as in not given; details: IC50 values available from the literature; ref not given; cited from earlier work
TNKS2 = test system: TNKS2; parameters: method as in not given; details: IC50 values available from the literature; ref not given; cited from earlier work
[1] = IC50 values available from the literature, ref not given

T1 sequence (Q9H2K2 959-1164): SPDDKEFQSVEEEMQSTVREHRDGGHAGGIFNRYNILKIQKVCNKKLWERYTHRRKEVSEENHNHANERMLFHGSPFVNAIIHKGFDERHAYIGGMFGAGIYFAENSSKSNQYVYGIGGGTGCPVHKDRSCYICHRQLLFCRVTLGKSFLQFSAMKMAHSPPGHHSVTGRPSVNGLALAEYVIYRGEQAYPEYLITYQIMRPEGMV

Row | IC50 (PARP domain of TNKS2) | SMILES | IC50 (PARP1) | IC50 (PARP2) | IC50 (PARP1; [1]) | other results
1 | 10000 nM | Nc1cccc2c(=O)[nH]ccc12 [5-AIQ, 5-Aminoisoquinolinone] | 250 nM | – | – | –
3 | 3000 nM | Cc1nc2c(c(=O)[nH]1)CSCC2 [DR-2313, 2-Methyl-3,5,7,8-tetrahydro-4H-thiopyrano[4,3-d]pyrimidin-4-one] | – | 240 nM | – | –
4 | – | Cc1nc2c(O)cccc2c(=O)[nH]1 [NU-1025, 8-Hydroxy-2-methyl-3-hydro-quinazolin-4-one] | – | – | 400 nM | –
5 | 3600 nM | NC(=O)c1cccc2ncc(-c3ccc(Cl)cc3)nc12 [3,4-CPQ-5C, 3-(4-Chlorophenyl)-quinoxaline-5-carboxamide] | – | – | – | –
6 | > 30000 nM | NC(=O)c1cccc(N)c1 [3-AB, 3-Amino-benzamide] | – | – | 33000 nM | –
7 | 416 nM | NC(=O)c1ccc(I)c([N+](=O)[O-])c1 [BSI-201, 4-Iodo-3-nitrobenzamide] | – | – | – | –
8 | – | Nc1ccc2oc(=O)ccc2c1I [INH2BP, 5-Iodo-6-amino-1,2-benzopyrone] | – | 4750 nM | 5070 nM | –
9 | 1500 nM | Oc1cccc2c(O)nccc12 [1,5-IQD, 1,5-Isoquinolinediol] | – | – | – | –

Row | SMILES | IC50 (PARP domain of TNKS2) | IC50 (PARP1) | IC50 (PARP2) | IC50 (PARP1; [1]) | other results
10 | O=C1NCCc2c(OCCCCN3CCCCC3)cccc21 [DPQ] | 2800 nM | 23 nM | – | – | IC50 (TNKS1): 33 nM
